Patent US20100104550A1 (priority 2006, published 2010)

Experiments:
[1] = tested on: BiP; format: cell-based, African green monkey
[2] = tested on: CHOP; format: cell-based, murine
[3] = target: GRP78/BiP (Homo sapiens, UniProt P11021); format: cell-based
[4] = target: bovine BiP (Bos taurus, UniProt Q0VCX2); format: biochemical

Chain of GRP78/BiP (P11021 19-654): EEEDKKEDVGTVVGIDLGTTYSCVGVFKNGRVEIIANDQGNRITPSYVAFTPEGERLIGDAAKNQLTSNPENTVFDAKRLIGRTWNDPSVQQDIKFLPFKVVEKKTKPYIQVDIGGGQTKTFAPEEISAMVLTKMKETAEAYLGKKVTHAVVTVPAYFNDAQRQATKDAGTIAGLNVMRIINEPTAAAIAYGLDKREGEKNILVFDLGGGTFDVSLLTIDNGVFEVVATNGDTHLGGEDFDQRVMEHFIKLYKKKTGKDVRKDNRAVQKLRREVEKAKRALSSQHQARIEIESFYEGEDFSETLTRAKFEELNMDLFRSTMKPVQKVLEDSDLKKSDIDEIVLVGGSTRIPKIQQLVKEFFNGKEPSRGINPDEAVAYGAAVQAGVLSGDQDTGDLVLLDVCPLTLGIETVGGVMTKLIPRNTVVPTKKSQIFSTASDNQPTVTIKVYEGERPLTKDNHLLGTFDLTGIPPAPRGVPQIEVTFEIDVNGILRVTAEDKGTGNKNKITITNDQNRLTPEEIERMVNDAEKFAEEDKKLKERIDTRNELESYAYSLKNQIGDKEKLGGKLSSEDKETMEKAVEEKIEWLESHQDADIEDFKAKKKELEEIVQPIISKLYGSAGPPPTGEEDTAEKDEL

C[C@H]1CCC/C=C/[C@@H]2C[C@H](O)C[C@H]2[C@H](O)/C=C/C(=O)O1 [brefeldin A]
effect on SubAB cleavage of 72-kDa BiP [1]: completely blocked

C/C=C(/C)C(=O)O[C@H]1C(C)=C2[C@H]([C@@H]1OC(=O)CCCCCCC)[C@@](C)(OC(C)=O)C[C@H](OC(=O)CCC)[C@@]1(O)[C@H]2OC(=O)[C@@]1(C)O [thapsigargin, reference compound]
CHOP induction in N2A cells [2]: evident | expression of BiP [3]: enhanced expression of BiP

SubB: B subunit of subtilase cytotoxin, 13 kDa, binds target cells and transports SubA intracellularly
cleavage of purified bovine BiP [4]: not cleaved

tunicamycin
CHOP induction in N2A cells [2]: evident
